Reference: patent US20240174690A1, “ANNULATED 2-AMINO-3-CYANO THIOPHENES AND DERIVATIVES FOR THE TREATMENT OF CANCER” (BOEHRINGER INGELHEIM INTERNATIONAL GMBH, priority 2021, published 2024)
In brackets after ≈: the same amount, converted by molar mass. Where two headings read alike, the source gives them in different places.

Experiments:
NCI-H358 cells = test: NCI-H358 CTG proliferation assay (120 h) (NSCLC, G12C); assay type: cell-based, human; details: Homo sapiens
Method: NCI-H358 CTG Proliferation Assay (120 h) (NSCLC, G12C)
NCI-H358 cells (ATCC No. CRL-5807) are dispensed into white bottom opaque 96 well plates (Perkin Elmer cat no. 5680) at a density of 2000 cells per well in 100 μL RPMI-1640 ATCC-Formulation (Gibco #A10491)+10% FCS (fetal calf serum) (assay 1) or into black 384-well plates, flat and clear bottom (Greiner, PNr. 781091) at a density of 200 cells per well in 60 μl RPMI-1640 ATCC-Formulation (Gibco #A10491)+10% FCS (fetal calf serum) (assay 2). […] Compounds (10 mM stock in DMSO) are added at logarithmic dose series using the HP Digital Dispenser D300 (Tecan) (assay 1) or the ECHO acoustic liquid handler system (Beckman Coulter) (assay 2), normalizing for added DMSO and including DMSO controls. For the TO time point measurement, untreated cells are analyzed at the time of compound addition. Plates are incubated for 120 h, and cell viability is measured using CellTiter-Glo luminescent cell viability reagent (Promega product code G7570). Viability (stated as percent of control) is defined as relative luminescence units RLU of each well divided by the RLU of cells in DMSO controls. IC50 values are determined from viability measurements by non-linear regression using a four parameter model.

[1] = Solubility measurement (DMSO solution method), McIlvaine buffer pH 4.5 or 6.8; assay type: physicochemical; details: aqueous buffer, kinetic from dmso stock, DMSO stock diluted to 250 μM, 24 h shaking at ambient temperature
Method: The DMSO solution is diluted with an aqueous medium (Mcllvaine buffer with pH=4.5 or 6.8) to a final concentration of 250 μM. After 24 h of shaking at ambient temperature a potentially formed precipitate is removed by filtration. The concentration of the test compound in the filtrate is determined by LC-UV methods by calibrating the signal to the signal of a reference solution with complete dissolution of the test compound in acetonitrile/water (1:1) with known concentration.

CYP3A4 = CYP3A4 (Homo sapiens (Human), UniProt P08684); test: Mechanism based inhibition of CYP3A4 assay (MBI 3A4); assay type: in vitro ADME; details: hydroxy-midazolam formation after 30 min vs 0 min preincubation, 25 uM, human liver microsomes
Method: After preincubation, the incubate is diluted 1:10 and the substrate midazolam is added for the main incubation (15 min). The main incubation is quenched with acetonitrile and the formation of hydroxy-midazolam is quantified via LC/MS-MS. The formation of hydroxy-midazolam from the 30 min preincubation relative to the formation from the 0 min preincubation is used as a readout. Values of less than 100% mean that the substrate midazolam is metabolized to a lower extent upon 30 min preincubation compared to 0 min preincubation. In general low effects upon 30 min preincubation are desired (corresponding to values close to 100%/not different to the values determined with water control).

SK-CO-1 cells = test: SK-CO-1 CTG proliferation assay (120 h) (CRC, G12V); assay type: cell-based; details: Homo sapiens; SK-CO-1 cells (CRC, G12V), CTG 120 h
Method: SK-CO-1 CTG Proliferation Assay (120 h) (CRC, G12V)
SK-CO-1 cells (ATCC HTB-39) are dispensed into 384-well plates, flat and clear bottom (Greiner, PNr. 781091) at a density of 500 cells per well in 60 μL EMEM (Sigma M5650)+10% Fetal Calf Serum (HyClone, PNr.: SH30084.03) and incubated at 37° C. in a CO2 incubator overnight. The next day, compounds (10 mM stock in DMSO) are added with the ECHO acoustic liquid handler system (Beckman Coulter), including DMSO controls. Plates are incubated for 120 h, and cell viability is measured using CellTiter-Glo luminescent cell viability reagent (Promega product code G7570). Viability (stated as percent of control) is defined as relative luminescence units RLU of each well divided by the RLU of cells in DMSO controls. IC50 values are determined from viability measurements by non-linear regression using a four-parameter model.

[2] = assay 1, CTG, read-out: H358 (assay 1) IC50
[3] = assay 2, CTG, read-out: H358 (assay 2) IC50
[4] = McIlvaine buffer pH 4.5, read-out: solubility pH 4.5
[5] = McIlvaine buffer pH 6.8, read-out: solubility pH 6.8

CYP3A4, sequence (P08684 whole entry): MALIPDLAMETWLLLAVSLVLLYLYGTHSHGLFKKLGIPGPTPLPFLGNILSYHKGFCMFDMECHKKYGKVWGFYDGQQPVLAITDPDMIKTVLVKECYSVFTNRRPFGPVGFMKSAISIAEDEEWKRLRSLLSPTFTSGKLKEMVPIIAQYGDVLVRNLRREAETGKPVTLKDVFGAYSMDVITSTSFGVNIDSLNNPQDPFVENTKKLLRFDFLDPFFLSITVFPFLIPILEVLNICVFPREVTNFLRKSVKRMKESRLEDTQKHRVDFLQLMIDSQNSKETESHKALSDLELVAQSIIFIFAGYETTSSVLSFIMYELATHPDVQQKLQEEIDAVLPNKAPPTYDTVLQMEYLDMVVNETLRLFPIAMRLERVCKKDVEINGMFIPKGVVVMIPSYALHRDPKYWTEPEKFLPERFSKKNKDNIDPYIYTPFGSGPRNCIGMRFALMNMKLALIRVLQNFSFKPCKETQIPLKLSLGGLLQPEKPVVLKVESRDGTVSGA

Compound | IC50 (NCI-H358 cells; [2]) [µM] | IC50 (NCI-H358 cells; [3]) [µM] | solubility at 24 h [1, 4] [µg/mL] | solubility at 24 h [1, 5] [µg/mL] | MBI 3A4 (CYP3A4) [%] | IC50 (SK-CO-1 cells) [µM]
CO[C@@H]1C[C@@H]([C@H](C)Oc2cc(-c3ccn(C)n3)nc(-c3noc4c3CCC[C@@]43CCCc4sc(N)c(C#N)c43)n2)N(C)C1 [II-91] | 0.078 | 0.019 | 118 (≈ 196 µM) | < 1 | 68 | 0.078
C[C@H](Oc1cc(C2COCCO2)nc(-c2noc3c2CCC[C@@]32CCCc3sc(N)c(C#N)c32)n1)[C@@H]1CCCN1C (stereo partly shown) [II-95] | – | 0.4 | > 134 | > 121 | 68 | 0.341
C[C@H](Oc1cc(N2CCC(C#N)C2)nc(-c2noc3c2CCC[C@@]32CCCc3sc(N)c(C#N)c32)n1)[C@@H]1CCCN1C (stereo partly shown) [II-99] | – | 1.34 | 115 (≈ 197 µM) | 84 (≈ 144 µM) | 78 | 0.159
C[C@H](Oc1cc(N2CCNC3(CC3)C2)nc(-c2noc3c2CCC[C@@]32CCCc3sc(N)c(C#N)c32)n1)[C@@H]1CCCN1C [II-54] | 0.298 | 0.908 | > 134 | > 122 | 31 | 0.464
C[C@H](Oc1cc(-n2cncc3ccnc2-3)nc(-c2noc3c2CCC[C@@]32CCCc3sc(N)c(C#N)c32)n1)[C@@H]1CCCN1C [II-105] | – | 0.046 | 3 (≈ 4.94 µM) | < 1 | 79 | 0.031
C[C@H](Oc1cc(N2CCC[C@H](O)C2)nc(-c2noc3c2CCC[C@@]32CCCc3sc(N)c(C#N)c32)n1)[C@@H]1CCCN1C [II-57] | – | 0.286 | 109 (≈ 185 µM) | 101 (≈ 171 µM) | 61 | 0.087
C[C@H](Oc1cc(N2CC[C@H](N(C)C)C2)nc(-c2noc3c2CCC[C@@]32CCCc3sc(N)c(C#N)c32)n1)[C@@H]1CCCN1C [II-49] | – | 1.91 | > 141 | 114 (≈ 189 µM) | 75 | 0.872
C[C@H](Oc1cc(-c2cnn(C)c2)nc(-c2noc3c2CCC[C@@]32CCCc3sc(N)c(C#N)c32)n1)[C@@H]1CCCN1C [II-74] | – | 1.68 | 57 (≈ 99.9 µM) | 29 (≈ 50.8 µM) | 81 | 0.052
C[C@H](Oc1cc(-c2ccn(C)n2)nc(-c2noc3c2CCC[C@@]32CCCc3sc(N)c(C#N)c32)n1)[C@@H]1CCCN1C [II-96] | – | 0.098 | 107 (≈ 187 µM) | 2 (≈ 3.5 µM) | 85 | 0.067
Cc1cn(-c2cc(O[C@@H](C)[C@@H]3CCCN3C)nc(-c3noc4c3CCC[C@@]43CCCc4sc(N)c(C#N)c43)n2)nn1 [II-106] | – | 2.25 | 107 (≈ 187 µM) | 13 (≈ 22.7 µM) | 61 | 0.491
C[C@H](Oc1cc(N2Cc3cnn(C)c3C2)nc(-c2noc3c2CCC[C@@]32CCCc3sc(N)c(C#N)c32)n1)[C@@H]1CCCN1C [II-63] | – | 0.066 | < 1 | < 1 | 74 | 0.134
C[C@H](Oc1cc(-n2cc(C3CC3)nn2)nc(-c2noc3c2CCC[C@@]32CCCc3sc(N)c(C#N)c32)n1)[C@@H]1CCCN1C [II-118] | – | 0.295 | 32 (≈ 53.5 µM) | < 1 | 45 | 3.87
C[C@H](Oc1cc(-c2ccn(-c3ccccc3)n2)nc(-c2noc3c2CCC[C@@]32CCCc3sc(N)c(C#N)c32)n1)[C@@H]1CCCN1C [II-89] | – | 0.22 | 2 (≈ 3.16 µM) | < 1 | 73 | 0.198
